The values below come from patent US8420630B2 (Boehringer Ingelheim Pharma GmbH & Co. KG, priority 2001, dated 2013).

Where a name gives a salt, the structure may show the parent alone.

System in the first data set: not given
Assay: not given
Details: not given
As to `CC(=O)NCCNc1nc(Nc2ccc(Cl)c(Cl)c2)ncc1[N+](=O)[O-]` [Example 1, 2-(3,4-dichlorophenylamino)-4-(2-acetylamino-ethylamino)-5-nitro-pyrimidine], the melting point fell in the range of 200 to 201 °C.
Same read-out and setting: with `CC(=O)NCCNc1nc(Nc2cccc(NC(C)=O)c2)ncc1C(F)(F)F` [Example 10(000), N-(2-[2-(3-acetylamino-phenylamino)-5-trifluoromethyl-pyrimidin-4-ylamino]-ethyl)-acetamide] the figure was 222 °C; with `CC(=O)NCCNc1nc(Nc2cccc(C(=O)O)c2)ncc1C(F)(F)F` [Example 9, 3-[4-(2-acetylamino-ethylamino)-5-trifluoromethyl-pyrimidin-2-ylamino]-benzoic acid], 282 °C.
The compound `CC(=O)NCCNc1nc(Nc2cccc(CN3CCCCC3)c2)ncc1C(F)(F)F` [Example 11, N-{2-[2-(3-piperidin-1-ylmethyl-phenylamino)-5-trifluoromethyl-pyrimidin-4-ylamino]-ethyl}-acetamide] displayed a melting point of 93 to 94 °C.
Same read-out and setting: with `O=C(NCCNc1nc(Nc2ccc(Cl)c(Cl)c2)ncc1C(F)(F)F)c1ccccc1` [Example 7, N-(2-[2-(3,4-dichloro-phenylamino)-5-trifluoromethyl-pyrimidin-4-ylamino]-ethyl)-benzamide] the figure was 160 to 162 °C; with `CC(=O)NCCNc1nc(Nc2ccc(C(=O)O)cc2)ncc1[N+](=O)[O-].Cl`, 171 to 173 °C.
`CNC(=O)c1ccc(Nc2ncc(C(F)(F)F)c(NCCNC(C)=O)n2)cc1` [Example 8, 4-[4-(2-acetylamino-ethylamino)-5-trifluoromethyl-pyrimidin-2-ylamino]-N-methyl-benzamide] yielded a melting point of 183 °C.
The same measure, in the same setting: with `CC(=O)NCCNc1nc(Nc2ccc(C(=O)O)cc2)ncc1C(C)C` [Example 6, 4-[4-(2-acetylamino-ethylamino)-5-isopropyl-pyrimidin-2-ylamino]-benzoic acid] the figure was 275 to 278 °C.

The test system of the next data set is cell culture.
Assay: not given
To be noted: Ongkeko et al., 1995, J. Cell Sci., 108, 2897; cited from earlier work.
With `Cn1cnc2c(NCc3ccccc3)nc(NCCO)nc21` [olomoucine], the “effect with cytotoxic substances in cell culture” value was “synergistic effect”.

The target in the next data set is T1, CDK1/cyclinB1 (Homo sapiens, UniProt P06493).
T1 construct: made in house; host or cells: High Five insect cells (Trichoplusia ni), baculovirus coinfection
T1 sequence (P06493 whole entry): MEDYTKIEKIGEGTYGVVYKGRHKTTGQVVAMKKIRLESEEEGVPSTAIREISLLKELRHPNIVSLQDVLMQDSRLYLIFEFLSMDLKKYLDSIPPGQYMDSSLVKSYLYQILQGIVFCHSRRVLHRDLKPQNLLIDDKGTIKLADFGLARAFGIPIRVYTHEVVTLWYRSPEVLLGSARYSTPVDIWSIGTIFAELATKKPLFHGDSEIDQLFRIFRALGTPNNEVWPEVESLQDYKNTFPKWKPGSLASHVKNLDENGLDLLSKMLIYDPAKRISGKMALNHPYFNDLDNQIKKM
T1 sequence (P14635 whole entry partner): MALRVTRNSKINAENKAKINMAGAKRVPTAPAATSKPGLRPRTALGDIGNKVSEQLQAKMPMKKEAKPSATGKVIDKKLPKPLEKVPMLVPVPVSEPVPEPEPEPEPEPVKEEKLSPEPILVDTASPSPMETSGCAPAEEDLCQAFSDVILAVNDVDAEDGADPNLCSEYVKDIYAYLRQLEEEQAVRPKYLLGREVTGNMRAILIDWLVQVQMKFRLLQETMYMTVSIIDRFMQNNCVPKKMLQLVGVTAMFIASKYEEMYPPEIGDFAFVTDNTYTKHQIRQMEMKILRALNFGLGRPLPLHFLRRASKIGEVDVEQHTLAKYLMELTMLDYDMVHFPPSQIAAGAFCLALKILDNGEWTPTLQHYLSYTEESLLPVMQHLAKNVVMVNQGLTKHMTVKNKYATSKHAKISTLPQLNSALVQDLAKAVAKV
The experiment in a line: Cyclin B1-CDK1 kinase inhibition test. To be noted: CDK1 tests (Example 13); recombinant cyclin B1/CDK1, substrate histone H1; read-out: CDK1/cyclinB1 IC50 value. Type of data set: biochemical. In a few lines:
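Baculovirus-expressed CDK1/cyclin B1 phosphorylated histone H1 with ATP mix containing 0.045 mM ATP plus ^33P-ATP for 30 min at 30 °C. Protein was precipitated with TCA and filter-bound radioactivity read by scintillation counting. Olomoucin at 30 and 300 μM final served as internal control.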
Take `CC(=O)NCCNc1nc(Nc2cccc(NC(C)=O)c2)ncc1C(F)(F)F` [Example 10(000), N-(2-[2-(3-acetylamino-phenylamino)-5-trifluoromethyl-pyrimidin-4-ylamino]-ethyl)-acetamide]: the IC50 is less than 100 nM.
On the same count and under the same terms, with `COCC(=O)NCCCNc1nc(Nc2ccc3cnn(C)c3c2)ncc1C(F)(F)F` [Example 7(013), 2-methoxy-N-{3-[2-(1-methyl-1H-indazol-6-ylamino)-5-trifluoromethyl-pyrimidin-4-ylamino]-propyl}-acetamide] the figure was less than 100 nM; with `CC(=O)NCCNc1nc(Nc2ccc(Cl)c(Cl)c2)ncc1Br` [Example 2(002), 2-(3,4-dichlorophenylamino)-4-(2-acetylamino-ethylamino)-5-bromo-pyrimidine-hydrochloride], less than 100 nM.
The same measure, in the same setting: with `CC(=O)NCCNc1nc(Nc2ccc(C(=O)Nc3ccccn3)cc2)ncc1C(F)(F)F` [Example 8(024), 4-[4-(2-acetylamino-ethylamino)-5-trifluoromethyl-pyrimidin-2-ylamino]-N-pyridin-2-yl-benzamide] the figure was less than 100 nM.
For `FC(F)(F)c1cnc(Nc2cc(Cl)cc(Cl)c2)nc1N1CCc2[nH]cnc2C1` [Example 1(014), 2-(3,5-dichlorophenylamino)-4-(1,4,6,7-tetrahydro-imidazo[4,5-c]pyridin-5-yl)-5-trifluoromethyl-pyrimidine], the IC50 is less than 100 nM.
Same read-out and setting: with `COc1cc(C(O)CNc2nc(Nc3ccc(Cl)c(Cl)c3)ncc2C(F)(F)F)ccc1O` (stereo not drawn) [Example 1(053), 2-(3,4-dichloro-phenylamino)-4-(2-(4-hydroxy-3-methoxy-phenyl)-2-hydroxy-1-ethylamino)-5-trifluoromethyl-pyrimidine] the figure was less than 100 nM; with `O=[N+]([O-])c1cnc(Nc2ccc(Cl)cc2)nc1N1CCCC(CCCCN2CCCC2)C1` (stereo not drawn) [Example 1(028), 2-(4-chloro-phenylamino)-4-(3-(4-(pyrrolidin-1-yl)butyl)-piperidin-1-yl)-5-nitro-pyrimidine], less than 100 nM.
The same measure, in the same setting: with `O=[N+]([O-])c1cccc(Nc2ncc([N+](=O)[O-])c(N3CCCC(CO)C3)n2)c1` (stereo not drawn) [Example 1(050), 2-(3-nitro-phenylamino)-4-(3-hydroxymethyl-piperidin-1-yl)-5-nitro-pyrimidine] the figure was less than 100 nM; with `C#Cc1cnc(Nc2ccc(S(=O)(=O)N(C)C)cc2)nc1NCCNC(C)=O` [Example 4(001), N-{2-[2-(4-dimethylsulphamoyl-phenylamino)-5-ethynyl-pyrimidin-4-ylamino]-ethyl}-acetamide], less than 100 nM.
Same read-out and setting: with `CC(=O)NCCNc1nc(Nc2ccc(Cl)c(Cl)c2)ncc1C(F)(F)F` [Example 2(003), 2-(3,4-dichlorophenylamino)-4-(2-acetylamino-ethylamino)-5-trifluoromethyl-pyrimidine-hydrochloride] the figure was less than 100 nM; with `CN(C)CC(=O)NCCCNc1nc(Nc2ccc(C(N)=O)cc2)ncc1C(F)(F)F` [Example 7(029), 4-(4-[3-(2-dimethylamino-acetylamino)-propylamino]-5-trifluoromethyl-pyrimidin-2-ylamino)-benzamide], less than 100 nM.
With `O=C1CCCN1CCCNc1nc(Nc2ccc3cn[nH]c3c2)ncc1Cl` [Example 2(048), 1-{3-[5-chloro-2-(1H-indazol-6-ylamino)-pyrimidin-4-ylamino]-propyl}-pyrrolidin-2-on], the IC50 was less than 100 nM.
On the same count and under the same terms, with `O=S(=O)(c1ccc(Nc2ncc(C(F)(F)F)c(N3CCc4nc[nH]c4C3)n2)cc1)N1CCOCC1` [Example 1(695), [4-(Morpholin-4-sulphonyl)-phenyl]-[4-(3,4,6,7-tetrahydro-imidazo[4,5-5]pyridin-5-yl)-5-trifluoromethyl-pyrimidin-2-yl]-amine] the figure was less than 100 nM; with `CC(=O)NCCNc1nc(Nc2ccc(S(=O)(=O)N3CC(C)NC(C)C3)cc2)ncc1C(F)(F)F` (stereo not drawn) [Example 2(061), N-(2-{2-[4-(3,5-Dimethyl-piperazin-1-sulphonyl)-phenylamino]-5-trifluoromethyl-pyrimidin-4-ylamino}-ethyl)-acetamide], less than 100 nM; with `NC1CCCC(Nc2nc(Nc3ccc(Cl)cc3)ncc2[N+](=O)[O-])C1` (stereo not drawn) [Example 1(034), 2-(4-chloro-phenylamino)-4-(3-amino-cyclohexylamino)-5-nitro-pyrimidine], less than 100 nM.
With `CC(=O)NCCNc1nc(Nc2ccc(Cl)cc2)ncc1C(F)(F)F` [Example 2(016), 2-(4-chloro-phenylamino)-4-(2-acetylamino-ethylamino)-5-trifluoromethyl-pyrimidine], the IC50 was less than 100 nM.
On the same count and under the same terms, with `CC(=O)NCCNc1nc(Nc2ccc(-c3nn[nH]n3)cc2)ncc1C(F)(F)F` [Example 2(046), N-(2-{2-[4-(2H-Tetrazol-5-yl)-phenylamino]-5-trifluoromethyl-pyrimidin-4-ylamino}-ethyl)-acetamide] the figure was less than 100 nM.
Regarding `Cn1ncc2ccc(Nc3ncc(C(F)(F)F)c(NCCCNS(=O)(=O)c4ccc(F)cc4)n3)cc21` [Example 7(012), 4-fluoro-N-{3-[2-(1-methyl-1H-indazol-6-ylamino)-5-trifluoromethyl-pyrimidin-4-ylamino]-propyl}-benzensulphonamide], the IC50 was less than 100 nM.
On the same count and under the same terms, with `FC(F)(F)c1cnc(Nc2ccc(Cl)cc2)nc1N1CCc2[nH]cnc2C1` [Example 1(004), 2-(4-chlorophenylamino)-4-(1,4,6,7-tetrahydro-imidazo[4,5-c]pyridin-5-yl)-5-trifluoromethyl-pyrimidine] the figure was less than 100 nM.
On the same count and under the same terms, with `NC1CCC(Nc2nc(Nc3ccc(C(=O)O)cc3)ncc2C(F)(F)F)CC1` (stereo not drawn) [Example 1(111), 2-(4-carboxyphenylamino)-4-(4-amino-cyclohexylamino)-5-trifluoromethyl-pyrimidine] the figure was less than 100 nM.
On to `NCCc1ccccc1CCNc1nc(Nc2ccc(Cl)c(Cl)c2)ncc1C(F)(F)F` [Example 1(349), 2-(3,4-dichlorophenylamino)-4-(2-(2-(2-amino-1-ethyl)-phenyl)-1-ethyl-amino)-5-trifluoromethyl-pyrimidine], for which the IC50 is less than 100 nM.
As to `FC(F)(F)c1cnc(Nc2ccc(Cl)c(Cl)c2)nc1NCCCN1CC2C=CC1C2` (stereo not drawn) [Example 1(009), 2-(3,4-dichlorophenylamino)-4-(3-(2-aza-bicyclo[2.2.1]hept-5-en-2-yl)-propylamino)-5-trifluoro-methyl-pyrimidine], the IC50 is less than 100 nM.
The same measure, in the same setting: with `FC(F)(F)c1cnc(Nc2ccc3ccccc3c2)nc1N1CCc2[nH]cnc2C1` [Example 1(152), 2-(2-naphthylamino)-4-(1,4,6,7-tetrahydro-imidazo[4,5-c]pyridin-5-yl)-5-trifluoromethyl-pyrimidine] the figure was less than 100 nM; with `Cc1cc(Nc2ncc([N+](=O)[O-])c(NCC3CCC(CN)CC3)n2)ccc1Cl` (stereo not drawn) [Example 1(115), 2-(4-chloro-3-methyl-phenylamino)-4-(4-aminomethyl-cyclohexylmethylamino)-5-nitro-pyrimidine], less than 100 nM.
On the same count and under the same terms, with `CN(C)[C@H]1CC[C@H](Nc2nc(Nc3ccc(C(=O)O)cc3)ncc2[N+](=O)[O-])CC1` [Example 1(018), 2-(4-carboxy-phenylamino)-4-(trans-4-dimethylamino-cyclohexylamino)-5-nitro-pyrimidine] the figure was less than 100 nM.
The same measure, in the same setting: with `COCC(=O)NCCCNc1nc(Nc2ccc(C(N)=O)cc2)ncc1C(F)(F)F` [Example 7(028), 4-[4-(3-(2-methoxy-acetamino)-propylamino)-5-trifluoromethyl-pyrimidin-2-ylamino]-benzamide] the figure was less than 100 nM; with `NC(=O)c1cccc(Nc2ncc([N+](=O)[O-])c(N3CCc4[nH]cnc4C3)n2)c1` [Example 1(022), 2-(3-aminocarbonyl-phenylamino)-4-(1,4,6,7-tetrahydro-imidazo[4,5-c]pyridin-5-yl)-5-nitro-pyrimidine], less than 100 nM.

A word on the melting point: it is the temperature of the solid-liquid transition.
